The text below walks through data of publication PMC8318587, “Structure-guided microbial targeting of antistaphylococcal prodrugs” (eLife, 2021).

For experiment [1], the target named is T1, SaGloB (Staphylococcus aureus, UniProt P0DY75).
T1 sequence (P0DY75 1-207): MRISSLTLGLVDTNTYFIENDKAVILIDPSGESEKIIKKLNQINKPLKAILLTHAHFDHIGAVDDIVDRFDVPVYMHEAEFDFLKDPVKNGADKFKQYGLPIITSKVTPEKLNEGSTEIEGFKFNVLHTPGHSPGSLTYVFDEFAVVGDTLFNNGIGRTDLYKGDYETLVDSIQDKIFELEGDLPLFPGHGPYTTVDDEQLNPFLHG
The experiment is described as follows: Esterase substrate specificity, fluorogenic SAR library kinetics. The note with it: SaGloB; for kcat/kuncat: normalised to uncatalysed hydrolysis rate; for Km: fluorogenic ester substrate. It is filed as biochemical. The protocol: (§1) Kinetic measurements were performed according to [White et al., 2018] with minor variation. Lyophilized human and mouse sera were resuspended according to manufacturer instructions in highly pure, filtered water at protein concentrations of 85 mg/mL and 70 mg/mL, respectively. One milliliter of resuspended serum was added to a 24 mL mastermix for a final concentration of 31.25 mM Tris pH 7.5, 312.5 mM NaCl, 1.25 mM MgCl2, 12.5% glycerol, and 3.4 mg/mL or 2.8 mg/mL protein for human and mouse serum, respectively. For purified proteins, 5 mL of a 75 µg/mL stock was added to yield a 20 mL mastermix containing 31.25 mM Tris pH 7.5, 312.5 mM NaCl, 1.25 mM MgCl2, 12.5% glycerol, and 18.75 µg/mL protein. Mastermix was stored on ice when not in use. Twenty microliters of mastermix was transferred to a black, 96-well half area microplate (Corning, CLS3993) and prewarmed at 37°C. Fluorogenic substrates were prepared as 10 mM stock solutions in 100% DMSO and were diluted in water to a starting concentration of 500 µM. Enzyme catalyzed substrate hydrolysis was initiated by addition of 5 µL substrate dilution in technical duplicate to the prewarmed serum or protein solution. Final assay concentrations were as follows: 25 mM Tris pH 7.5, 250 mM NaCl, 1 mM MgCl2, 10% glycerol, and protein at a concentration of 2.72 mg/mL (human serum), 2.24 mg/mL (mouse serum), or 15 µg/mL (FrmB, GloB). The resulting change in fluorescence (λex = 485 nm, λem = 520 nm) was followed for 15 min at 37°C, collecting data every 30 s on a FLUOstar Omega microplate reader (BMG Labtech). Fluorescence measurements were converted to molar concentrations using a fluorescein standard curve (2.5 nmol–0.6 pmol). The initial rates of reaction were measured three independent times with two technical replicates per measurement and fit to a line using GraphPad Prism (GraphPad Software, La Jolla, CA). Initial rates of reaction were plotted versus the concentration of substrate and fit to a standard Michaelis–Menten equation (v = Vmax[S]/(Km + [S])), yielding estimates of Vmax and Km. Values for kcat and kcat/Km were calculated based on amount of enzyme added when purified enzymes were used.

The target in experiment [2] is T2, SaFrmB (Staphylococcus aureus, UniProt A0A0H3KFB7).
T2 construct: made in house; host or cells: E. coli BL21 (DE3)
T2 sequence (A0A0H3KFB7 1-253): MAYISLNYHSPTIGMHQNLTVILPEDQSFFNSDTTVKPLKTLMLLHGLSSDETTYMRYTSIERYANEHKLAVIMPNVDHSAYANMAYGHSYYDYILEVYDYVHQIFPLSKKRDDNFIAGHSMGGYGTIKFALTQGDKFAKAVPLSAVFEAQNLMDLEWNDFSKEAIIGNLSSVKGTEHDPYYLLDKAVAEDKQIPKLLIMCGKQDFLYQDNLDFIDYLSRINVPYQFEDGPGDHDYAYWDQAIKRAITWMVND
The description is as above. Type of experiment: biochemical. The note with it: for kcat/kuncat: SaFrmB; for Km: SaFrmB 15 µg/mL, pH 7.5, 37°C. The protocol: as §1

Experiment [3] has as its system mouse sera. Put plainly: Esterase substrate specificity, fluorogenic SAR library kinetics in serum. It is filed as in vitro ADME. As for the experimental part: as §1
For experiment [4], the system named is human sera. The experiment is described as above. Type of experiment: in vitro ADME. As for the experimental part: as §1

A value given as a limit tells only on which side of the number the result lay.

The term Km denotes the concentration of substrate that gives half-maximal velocity. For `COCCC(=O)OCOc1ccc2c(c1)Oc1cc(OCOC(=O)CCOC)ccc1C21OC(=O)c2ccccc21` [4O], the kcat/kuncat in experiment [1] is reported as 8.42 103; in experiment [2], 1.40 103. Further, the Km in experiment [3] is greater than 50 µM; in experiment [4], 44.5 µM. Besides, the Vmax in experiment [4] was found to be 5.88 pmol*min-1*mg sera-1.
`CC(C)CCC(=O)OCOc1ccc2c(c1)Oc1cc(OCOC(=O)CCC(C)C)ccc1C21OC(=O)c2ccccc21` [6C]: the kcat/kuncat in experiment [1] was 12.7 103. Further, the results for the Km in experiment [2], in experiment [3] and in experiment [4] were greater than 50 µM, 53.5 µM and greater than 50 µM, respectively. Further, the Vmax in experiment [3] amounted to 17.6 pmol*min-1*mg sera-1.
Turning to `CCOCC(=O)OCOc1ccc2c(c1)Oc1cc(OCOC(=O)COCC)ccc1C21OC(=O)c2ccccc21` [2O], the kcat/kuncat in experiment [1] is given as 19.4 103; in experiment [2] it was 1.08 103. In addition, the Michaelis constant (Km) was greater than 50 µM in experiment [3] and 40.4 µM in experiment [4]. In experiment [4], the Vmax is 43.8 pmol*min-1*mg sera-1.
For the compound `C=CCSC(C)C(=O)OCOc1ccc2c(c1)Oc1cc(OCOC(=O)C(C)SCC=C)ccc1C21OC(=O)c2ccccc21` (stereo not drawn) [12S], the Km in experiment [1], in experiment [2], in experiment [3] and in experiment [4] was greater than 50 µM each time.
For the compound `O=C(COc1ccccc1)OCOc1ccc2c(c1)Oc1cc(OCOC(=O)COc3ccccc3)ccc1C21OC(=O)c2ccccc21` [11O], the Km in experiment [1], in experiment [2], in experiment [3] and in experiment [4] was greater than 50 µM throughout.
In the case of `O=C(CSc1ccccc1)OCOc1ccc2c(c1)Oc1cc(OCOC(=O)CSc3ccccc3)ccc1C21OC(=O)c2ccccc21` [11S], the Michaelis constant (Km) in experiment [1], in experiment [2], in experiment [3] and in experiment [4] was greater than 50 µM each time.
With `CCOC(C)C(=O)OCOc1ccc2c(c1)Oc1cc(OCOC(=O)C(C)OCC)ccc1C21OC(=O)c2ccccc21` (stereo not drawn) [8O], the kcat/kuncat is given as 6.80 103 in experiment [1] and 1.38 103 in experiment [2]. Moreover, the results for the Michaelis-Menten constant (Km) in experiment [3] and in experiment [4] were greater than 50 µM and 27.7 µM, respectively. In addition, the Vmax in experiment [4] amounted to 3.93 pmol*min-1*mg sera-1.
As to `CCSCC(=O)OCOc1ccc2c(c1)Oc1cc(OCOC(=O)CSCC)ccc1C21OC(=O)c2ccccc21` [2S], the Km in experiment [1], in experiment [2], in experiment [3] and in experiment [4] was greater than 50 µM each time.
For the compound `CCC(OC)C(=O)OCOc1ccc2c(c1)Oc1cc(OCOC(=O)C(CC)OC)ccc1C21OC(=O)c2ccccc21` (stereo not drawn) [9O], the kcat/kuncat in experiment [1] was 14.6 103. In addition, the Michaelis constant (Km) was greater than 50 µM in experiment [2], greater than 50 µM in experiment [3] and 112 µM in experiment [4]. Also, the Vmax in experiment [4] stood at 4.35 pmol*min-1*mg sera-1.
Take `CCSCCC(=O)OCOc1ccc2c(c1)Oc1cc(OCOC(=O)CCSCC)ccc1C21OC(=O)c2ccccc21` [5S]: the kcat/kuncat in experiment [1] is given as 4.35 103; in experiment [2] it was 0.910 103. In addition, the values for the Michaelis-Menten constant (Km) in experiment [3] and in experiment [4] were greater than 50 µM and 31 µM, respectively. Moreover, the Vmax in experiment [4] stood at 0.690 pmol*min-1*mg sera-1.
As to `C=CCOC(C)C(=O)OCOc1ccc2c(c1)Oc1cc(OCOC(=O)C(C)OCC=C)ccc1C21OC(=O)c2ccccc21` (stereo not drawn) [12O], the kcat/kuncat in experiment [1] is recorded as 1.28 103. Further, the Michaelis constant (Km) was greater than 50 µM in experiment [2], greater than 50 µM in experiment [3] and 42.2 µM in experiment [4]. The Vmax in experiment [4] amounted to 4.00 pmol*min-1*mg sera-1.
Take `CCC(C)C(=O)OCOc1ccc2c(c1)Oc1cc(OCOC(=O)C(C)CC)ccc1C21OC(=O)c2ccccc21` (stereo not drawn) [7C]: the Michaelis-Menten constant (Km) in experiment [1] is greater than 50 µM; in experiment [2], greater than 50 µM; in experiment [3], greater than 50 µM; in experiment [4], 64.2 µM. For the same compound, the Vmax in experiment [4] turned out to be 0.441 pmol*min-1*mg sera-1.
For the compound `CCC(SC)C(=O)OCOc1ccc2c(c1)Oc1cc(OCOC(=O)C(CC)SC)ccc1C21OC(=O)c2ccccc21` (stereo not drawn) [9S], the Michaelis-Menten constant (Km) in experiment [1], in experiment [2], in experiment [3] and in experiment [4] was greater than 50 µM throughout.
With `O=C(CCc1ccccc1)OCOc1ccc2c(c1)Oc1cc(OCOC(=O)CCc3ccccc3)ccc1C21OC(=O)c2ccccc21` [11C], the Km in experiment [1], in experiment [2], in experiment [3] and in experiment [4] was greater than 50 µM in each case.
As for `CSCCC(=O)OCOc1ccc2c(c1)Oc1cc(OCOC(=O)CCSC)ccc1C21OC(=O)c2ccccc21` [4S], the Km was greater than 50 µM in experiment [1], greater than 50 µM in experiment [3] and 27.9 µM in experiment [4]. Besides, the kcat/kuncat in experiment [2] was 1.40 103. For the same compound, the Vmax in experiment [4] is recorded as 3.81 pmol*min-1*mg sera-1.
Take `CC(C)OCC(=O)OCOc1ccc2c(c1)Oc1cc(OCOC(=O)COC(C)C)ccc1C21OC(=O)c2ccccc21` [6O]: the kcat/kuncat in experiment [1] was 5.76 103; in experiment [2], 1.49 103. Further, the Km in experiment [3] was 11.5 µM; in experiment [4], 54.6 µM. In addition, the results for the Vmax in experiment [3] and in experiment [4] were 437 pmol*min-1*mg sera-1 and 11.7 pmol*min-1*mg sera-1, respectively.
As to `CCC(C)(C)C(=O)OCOc1ccc2c(c1)Oc1cc(OCOC(=O)C(C)(C)CC)ccc1C21OC(=O)c2ccccc21` [10C], the Km in experiment [1], in experiment [2], in experiment [3] and in experiment [4] was greater than 50 µM in each case.
Consider `CCCSCC(=O)OCOc1ccc2c(c1)Oc1cc(OCOC(=O)CSCCC)ccc1C21OC(=O)c2ccccc21` [3S], for which the Michaelis-Menten constant (Km) in experiment [1] is greater than 50 µM; in experiment [2], greater than 50 µM; in experiment [3] it was greater than 50 µM; in experiment [4], 74.3 µM. In experiment [4], the Vmax is recorded as 8.80 pmol*min-1*mg sera-1.
Consider `CCCC(=O)OCOc1ccc2c(c1)Oc1cc(OCOC(=O)CCC)ccc1C21OC(=O)c2ccccc21` [1C], for which the kcat/kuncat is on record as 21.2 103 in experiment [1] and 7.99 103 in experiment [2]. Also, the Km in experiment [3] is greater than 50 µM; in experiment [4] it was 36.2 µM. The Vmax in experiment [4] is listed as 1.06 pmol*min-1*mg sera-1.
Consider `COC(C)C(=O)OCOc1ccc2c(c1)Oc1cc(OCOC(=O)C(C)OC)ccc1C21OC(=O)c2ccccc21` (stereo not drawn) [7O], for which the kcat/kuncat was 23.6 103 in experiment [1] and 3.31 103 in experiment [2]. Also, the Michaelis constant (Km) was found to be 25.9 µM in experiment [3] and 30.3 µM in experiment [4]. Besides, the figures for the Vmax in experiment [3] and in experiment [4] were 929 pmol*min-1*mg sera-1 and 5.73 pmol*min-1*mg sera-1, respectively.
`CSC(C)C(=O)OCOc1ccc2c(c1)Oc1cc(OCOC(=O)C(C)SC)ccc1C21OC(=O)c2ccccc21` (stereo not drawn) [7S]: the kcat/kuncat in experiment [1] is 7.86 103. In addition, the Michaelis-Menten constant (Km) in experiment [2] was greater than 50 µM; in experiment [3] it was greater than 50 µM; in experiment [4] it was 30.2 µM. Moreover, the Vmax in experiment [4] amounted to 1.60 pmol*min-1*mg sera-1.
For `CCCC(C)C(=O)OCOc1ccc2c(c1)Oc1cc(OCOC(=O)C(C)CCC)ccc1C21OC(=O)c2ccccc21` (stereo not drawn) [8C], in experiment [1], the kcat/kuncat is on record as 79.1 103. The Km in experiment [2], in experiment [3] and in experiment [4] was greater than 50 µM throughout.
As to `CCCCC(=O)OCOc1ccc2c(c1)Oc1cc(OCOC(=O)CCCC)ccc1C21OC(=O)c2ccccc21` [2C], the kcat/kuncat in experiment [1] is reported as 17.2 103; in experiment [2], 4.74 103. For the same compound, the Km in experiment [3] is greater than 50 µM; in experiment [4], 71.5 µM. Moreover, in experiment [4], the Vmax is recorded as 0.356 pmol*min-1*mg sera-1.
`CSCC(=O)OCOc1ccc2c(c1)Oc1cc(OCOC(=O)CSC)ccc1C21OC(=O)c2ccccc21` [1S]: the kcat/kuncat in experiment [1] was 11.4 103. In addition, the Michaelis-Menten constant (Km) in experiment [2] is greater than 50 µM; in experiment [3], greater than 50 µM; in experiment [4], 71.8 µM. For the same compound, the Vmax in experiment [4] worked out at 30.5 pmol*min-1*mg sera-1.
